Where two headings read alike, the source gives them in different places.
How the values were obtained:
HeLa cell = test: Proliferation assay (crystal violet), HeLa; format: cell-based, human; details: 4 days incubation, read-out: Inhibition of HeLa cell proliferation IC50
Description: (§1) After 24 hours, the cells of one plate (zero-point plate) were stained with crystal violet (see below), while the medium of the other plates was replaced by fresh culture medium (200 µL), to which the test substances were added in various concentrations (0 µM, as well as in the range of 0.001-10 µM; the final concentration of the solvent dimethyl sulfoxide was 0.5%). The cells were incubated for 4 days in the presence of test substances. Cell proliferation was determined by staining the cells with crystal violet: the cells were fixed by adding 20 µL/measuring point of an 11% glutaric aldehyde solution for 15 minutes at room temperature. After three washing cycles of the fixed cells with water, the plates were dried at room temperature. The cells were stained by adding 100 µL/measuring point of a 0.1% crystal violet solution (pH 3.0). After three washing cycles of the stained cells with water, the plates were dried at room temperature. The dye was dissolved by adding 100 µL/measuring point of a 10% acetic acid solution. […] The change of cell number, in percent, was calculated by normalization of the measured values to the absorbance values of the zero-point plate (=0%) and the absorbance of the untreated (0 µM) cells (=100%). The IC50 values were determined by means of a 4 parameter fit using the company's own software.

HeLa/MaTu/ADR cell = test: Proliferation assay (crystal violet), HeLa/MaTu/ADR; format: cell-based, human; details: HeLa/MaTu/ADR (multidrug-resistant), 4 days incubation, read-out: Inhibition of HeLa/MaTu/ADR cell proliferation IC50
Description: as §1

H460 cell = test: Proliferation assay (crystal violet), H460; format: cell-based; details: Homo sapiens, NCI-H460, 96 h; H460, 4 days incubation; read-out: Inhibition of H460 cell proliferation (activity range) IC50
Description: as §1

DU145 cell = test: Proliferation assay (crystal violet), DU145; format: cell-based, human; details: DU145, 4 days incubation, read-out: Inhibition of DU145 cell proliferation IC50
Description: as §1

CACO-2 cell = test: Proliferation assay (crystal violet), CACO-2; format: cell-based; details: Homo sapiens, 96 h; CACO-2, 4 days incubation; read-out: Inhibition of CACO-2 cell proliferation IC50
Description: as §1

B 16F 10 cell = test: Proliferation assay (crystal violet), B16F10; format: cell-based, mouse; details: B16F10, 4 days incubation, read-out: Inhibition of B 16F 10 cell proliferation IC50
Description: as §1

[1] = Equilibrium shake flask solubility assay; format: physicochemical; details: phosphate buffer pH 6.5, 24 hrs, room temperature; 1440 min
Description: 4. Equilibrium Shake Flask Solubility Assay:
The thermodynamic solubility of compounds in water was determined by an equilibrium shake flask method (see for example: E.H. Kerns, L. Di: Drug-like Properties: Concepts, Structure Design and Methods, 276-286, Burlington, MA, Academic Press, 2008). A saturated solution of the drug was prepared and the solution was mixed for 24 h to ensure that equilibrium was reached. The solution was centrifuged to remove the insoluble fraction and the concentration of the compound in solution was determined using a standard calibration curve.
To prepare the sample, 2 mg solid compound was weighed in a 4 mL glass vial. 1 mL phosphate buffer pH 6.5 was added. The suspension was stirred for 24 hrs at room temperature. The solution was centrifuged afterwards. To prepare the sample for the standard calibration, 2 mg solid sample was dissolved in 30 mL acetonitrile. After sonification the solution was diluted with water to 50 mL.. Sample and standards were quantified by HPLC with UV-detection. For each sample two injection volumes (5 and 50 µl) in triplicates were made. Three injection volumes (5 µl, 10 µl and 20 µl) were made for the standard.
The areas of sample- and standard injections as well as the calculation of the solubility value (in mg/l) were determined by using HPLC software (Waters Empower 2 FR).

IC50 (HeLa cell; Homo sapiens, 96 h) | IC50 (HeLa/MaTu/ADR cell; Homo sapiens, 96 h) | IC50 (H460 cell) | IC50 (DU145 cell; Homo sapiens, DU-145, 96 h) | IC50 (CACO-2 cell) | IC50 (B 16F 10 cell; Mus musculus, B16-F10, 96 h) | SMILES | further results
1000 nM | 380 nM | 360 nM | 390 nM | 390 nM | 360 nM | CCOC(=O)N=S(C)(=O)Cc1cccc(Nc2ncnc(-c3ccc(F)cc3OC)n2)c1 (racemic) [Compound 1, (rac)-Ethyl [(3-{[4-(4-fluoro-2-methoxyphenyl)-1,3,5-triazin-2-yl]amino}benzyl)(methyl)oxido-λ^6-sulfanylidene]carbamate] | 
1100 nM |  |  |  |  |  | COc1cc(F)ccc1-c1ncnc(Nc2cccc(CS(C)(=N)=O)c2)n1 (racemic) [Compound 2, (rac)-4-(4-Fluoro-2-methoxyphenyl)-N-{3-[(S-methylsulfonimidoyl)methyl]phenyl}-1,3,5-triazin-2-amine] | 
< 100 nM | 200 nM | 160 nM | 180 nM | 270 nM | 250 nM | CS(=N)(=O)Cc1cccc(Nc2ncnc(-c3ccc(F)cc3OCc3ccccc3)n2)c1 (racemic) [Compound 6, (rac)-4-[2-(Benzyloxy)-4-fluorophenyl]-N-{3-[(S-methylsulfonimidoyl)methyl]phenyl}-1,3,5-triazin-2-amine] | 
400 nM |  |  |  |  |  | CCOC(=O)N=S(C)(=O)Cc1cccc(Nc2ncnc(-c3cc(F)c(F)cc3OC)n2)c1 (racemic) [Compound 9, (rac)-Ethyl [(3-{[4-(4,5-difluoro-2-methoxyphenyl)-1,3,5-triazin-2-yl]amino}benzyl)(methyl)oxido-λ^6-sulfanylidene]carbamate] | 
 |  |  |  |  |  | COc1cc(F)ccc1-c1ncnc(Nc2cccc(CS(C)(=N)=O)c2)n1 (single isomer, unassigned; (+)) [Compound 4, (+)-4-(4-Fluoro-2-methoxyphenyl)-N-{3-[(S-methylsulfonimidoyl)methyl]phenyl}-1,3,5-triazin-2-amine] | IC50 (HeLa cell): 970 nM; IC50 (HeLa/MaTu/ADR cell): 440 nM; IC50 (DU145 cell): 670 nM; IC50 (B 16F 10 cell): 1000 nM; Solubilty in mg/l. (thermodynamic solubility in water) [1]: 479 µg/mL
1100 nM |  |  | 740 nM |  | 1000 nM | COc1cc(F)ccc1-c1ncnc(Nc2cccc(CS(C)(=N)=O)c2)n1 (single isomer, unassigned; (-)) [Compound 3, (-)-4-(4-Fluoro-2-methoxyphenyl)-N-{3-[(S-methylsulfonimidoyl)methyl]phenyl}-1,3,5-triazin-2-amine] | IC50 (HeLa/MaTu/ADR cell; Homo sapiens, HeLa, 96 h): 400 nM

Source: patent EP2527332A1, “4-Aryl-N-phenyl-1,3,5-triazin-2-amines containing a sulfoximine group as CDK9 inhibitors” (Bayer Intellectual Property GmbH, priority 2011, dated 2012)
